Here are results for 1 compound from US20240277682A1, “PHARMACEUTICAL HYDRONIDONE FORMULATIONS FOR DISEASES” (Gyre Therapeutics, Inc., priority 2021, published 2024).

Data set [1] in a line: In vitro Phase 2 metabolism in human liver microsomes. The format is in vitro ADME. Particulars: 30 minutes incubation. (Liver microsomes are a subcellular fraction often used to study metabolism.)
In a further data set the target is T1, human CYP 1A2 (Homo sapiens, UniProt P05177).
T1 sequence (P05177 1-516): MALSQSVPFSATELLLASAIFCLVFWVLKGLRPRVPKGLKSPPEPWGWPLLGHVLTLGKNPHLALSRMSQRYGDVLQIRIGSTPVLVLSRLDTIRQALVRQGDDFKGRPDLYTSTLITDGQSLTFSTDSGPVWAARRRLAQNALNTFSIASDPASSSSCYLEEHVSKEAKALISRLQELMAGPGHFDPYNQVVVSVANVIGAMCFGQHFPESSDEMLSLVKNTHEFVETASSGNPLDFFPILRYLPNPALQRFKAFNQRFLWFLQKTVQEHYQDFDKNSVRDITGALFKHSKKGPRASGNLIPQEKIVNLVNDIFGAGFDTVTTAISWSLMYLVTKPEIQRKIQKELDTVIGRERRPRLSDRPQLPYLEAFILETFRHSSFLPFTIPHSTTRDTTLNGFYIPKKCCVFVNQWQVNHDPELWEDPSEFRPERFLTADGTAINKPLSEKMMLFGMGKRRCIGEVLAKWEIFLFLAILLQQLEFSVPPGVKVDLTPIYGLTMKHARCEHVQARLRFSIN
The experiment in a line: biochemical. The protocol: In vitro study investigated whether Hydronidone is inhibitor for human cytochrome P450 (CYP450). The effects of different Hydronidone concentrations were determined by the fluorescence intensity of metabolic substrates of CYP1A2, 2C9, 2C19, 2 D6 and 3A4, produced under the effect of the relevant enzyme. The respective IC50 value were calculated in the event of observed inhibition with hydronidone.

Data set [2] can be described thus: Parallel group PK study of multiple ascending oral doses (Example 9). The class given is in vivo, human. The protocol:
This was randomized, open-label, parallel group PK study of multiple ascending oral doses of Hydronidone in healthy Chinese subjects.
In this study, ascending oral doses of Hydronidone of 200 mg, 400 mg, and 600 mg TID, were administered to 27 healthy subjects (15 males and 12 females) divided into 3 groups (9 subjects/group), for four (4) consecutive days. This was an inpatient study. Hydronidone was administered under fasted conditions. Blood and urine samples were collected for PK assessments. The PK assessments were performed upon single (after the first dose) and multiple dosing. Standard safety evaluations were also performed including physical examination, ECG, hematology, serum biochemistry and urinalysis.

Data set [3] relates to CCl4 and western diet (WD) induced NASH. The experiment in a line: (CCl4+HFD) induced NASH model in mice. The class given is in vivo. From the text: The total NASH score was lower at dosage of 15 milligram per kilogram (mpk) and 50 mpk.

Take `Cc1ccc(=O)n(-c2ccc(O)cc2)c1` [Hydronidone, N-(4-hydroxyphenyl)-5-Methyl-2-pyridone]: in data set [1], the “generation of the M4 metabolite” value is given as “detected”. Also, the IC50 (usually the concentration at which inhibition is half-maximal) on human CYP 1A2 was over 100 µM. For the same compound, in data set [2] (200 mg TID and 400 mg TID multiple-dose groups, mild), the “number of adverse events reported” value is recorded as 7 adverse events. Besides, the “dose proportionality of exposure” value in data set [2] (200-600 mg TID) was “increasing with the dose but without strict dose proportionality”. In addition, in data set [2] (200-600 mg TID, 4 days), the “deaths and SAEs” value is “No deaths nor SAEs were reported”; the safety and tolerability result was “safe and well tolerated”. Moreover, the exposure by sex entry in data set [2] (across dose levels) was “Male subjects had lower exposures as compared to female subjects”. Further, the Tmax (commonly the time from dosing to the highest level) in data set [2] (both sexes, human, plasma, oral, 200, 400, 600 mg TID, fasted, healthy Chinese subjects) was about 1 h. The accumulation result in data set [2] (single vs multiple dosing, TID for 4 days) is listed as “no obvious accumulation”. Besides, the “plasma level at 36 hrs. post-dose” value in data set [2] (upon single dosing, parent drug and major metabolites) is listed as “undetectable”. The “total NASH score” value in data set [3] (15 milligram per kilogram (mpk)) was “lower”. The “fibrosis and cell ballooning (H&E staining)” value in data set [3] (15 mpk) is listed as “significantly inhibited”. Also, in data set [3] (50 mpk), the “fibrosis and cell ballooning (H&E staining)” value was “significantly inhibited”; the “total NASH score” value is reported as “lower”. The “potency compared with pirfenidone” value in data set [3] (NASH model in mice) is recorded as “more potent than pirfenidone”. Further, the “effect on CCl4 and western diet (WD) induced NASH (H&E staining)” value in data set [3] (mice) was “protective effect”.
